Values quoted from earlier work, collected in US8951557B2, “Sustained release solid formulations and methods of manufacturing the same” (Hana Pharm. Co. Ltd., priority 2008, dated 2015).

Columns and labels:
[1] = administered orally, compared to direct administration into bloodstream
[2] = 5 mg rapid release tablet administered

SMILES: COc1ccc2c3c1O[C@H]1C(=O)CC[C@@]4(O)[C@@H](C2)N(C)CC[C@]314.Cl [Oxycodone hydrochloride]
- bioavailability [1]: 60-87%
- time the analgesic effect sustains [2]: 4 to 6 h
